Entries after “also recorded” stand apart in the source; their conditions may differ. Where two headings read alike, the source gives them in different places.
Key:
[1] = tested on: MCF-7 breast cancer cell line; experiment: SRB anti-proliferative assay, MCF-7; assay type: cell-based, human; conditions: for IC50: Homo sapiens, read-out: IC50 MCF-7
Description: (§1) Cytotoxicity was assessed following the SRB colorimetric assay protocol, as reported earlier.
(§2) 1. Anti-proliferative action toward human breast cell lines […]
(§3) have been obtained from American Type Culture Collection (ATCC). The cells were maintained in Dulbecco's modified Eagle's medium (DMEM) supplemented with 10% heat inactivated fetal calf serum (GIBCO), penicillin (100 U/ml) and streptomycin (100 µg/ml) at 37 °C in humidified atmosphere containing 5% CO2. Cells at a concentration of […]
(§4) The anti-proliferative activity of the tested hybrids 6a-i, 9a-f and 11a, b was measured in vitro using the Sulfo-Rhodamine-B stain (SRB) assay. Briefly, Cells were inoculated in 96-well microtiter plate (5X104 cells/ well) for 24 h before treatment with the tested compounds to allow attachment of cell to the wall of the plate. Tested compounds were dissolved in DMSO at 1 mg/ml immediately before use and diluted to the appropriate volume just before addition to the cell culture. Different concentrations of tested compounds, doxorubicin and sorafenib were added to the cells (three wells were prepared for each individual dose). Cells were incubated with the compounds for 48 h at 37°C and in atmosphere of 5% CO2. After 48 h cells were fixed, washed, and stained for 30 min with 0.4% (w/v) SRB dissolved in 1% acetic acid. Unbound dye was removed by four washes with 1% acetic acid, and attached stain was recovered with Tris-EDTA buffer.
(§5) Color intensity was measured in an ELISA reader. […]

[2] = tested on: MDA-MB-231 breast cancer cell line; experiment: SRB anti-proliferative assay, MDA-MB-231; assay type: cell-based, human; conditions: for IC50 / IC50 MDA-MB-231: mean ± S.D. from 3 separate experiments
Description: as §1, §2, §3, §4, §5

[3] = target: T1, CDK4 (Homo sapiens, UniProt P11802); experiment: CDK4 kinase inhibition (Reaction Biology HotSpot); assay type: biochemical; conditions: for inhibition at 20 µM: single dose of 20 µM
T1 construct: purchased Reaction Biology Corp. (Kinase HotSpot service)
From the text: (§6) 5. CDK Kinase Inhibitory Activity
(§7) along with required cofactors.
(§8) Kinase activity data were
(§9) (dimethyl sulfoxide) reactions.

[4] = target: T2, CDK2 (Homo sapiens, UniProt P24941); experiment: CDK2 kinase inhibition (Reaction Biology HotSpot); assay type: biochemical; conditions: single dose of 20 µM; read-out: % Enzyme Inhibitory Activity CDK2
T2 construct: purchased Reaction Biology Corp. (Kinase HotSpot service)
From the text: as §6, §7, §8, §9

[5] = target: CDK9 (Homo sapiens, UniProt P50750); experiment: CDK9 kinase inhibition (Reaction Biology HotSpot); conditions: read-out: % Enzyme Inhibitory Activity CDK9
Description: The in vitro CDK kinase inhibition assay was performed by Reaction Biology Corp. (PA, USA) (http://www.reactionbiology.com) Kinase HotSpotSM service.
Reaction Biology Corp. Kinase HotSpotSM service (http://www.reactionbiology.com)
was used for screening of tested compounds. CDK Kinase inhibitory activities were
assessed by the HotSpot assay platform, which contained specific kinase/substrate pairs
along with required cofactors. Base reaction buffer: 20 mM Hepes (pH 7.5), 10 mM MgCl2,
Testing compounds were dissolved in 100% DMSO to specific concentration. The serial
dilution was conducted by Integra Viaflo Assist in DMSO. The reaction mixture containing the examined compound and 33P-ATP was incubated at room temperature for
2 h and radioactivity was detected by filter-binding method. Kinase activity data were
expressed as the percent remaining kinase activity in test samples compared to vehicle

[6] = Homo sapiens, MDA-MB-231, 48 h, read-out: IC50 MDA-MB-231, SRB assay, 48 h
[7] = MCF7, SRB assay, 48 h, mean ± S.D. from 3 separate experiments
[8] = Homo sapiens, MDA-MB-231, SRB assay, 48 h, read-out: IC50 MDA-MB-231
[9] = SRB assay, 48 h, mean ± S.D. from 3 separate experiments

Sequence of CDK9 (P50750 whole entry): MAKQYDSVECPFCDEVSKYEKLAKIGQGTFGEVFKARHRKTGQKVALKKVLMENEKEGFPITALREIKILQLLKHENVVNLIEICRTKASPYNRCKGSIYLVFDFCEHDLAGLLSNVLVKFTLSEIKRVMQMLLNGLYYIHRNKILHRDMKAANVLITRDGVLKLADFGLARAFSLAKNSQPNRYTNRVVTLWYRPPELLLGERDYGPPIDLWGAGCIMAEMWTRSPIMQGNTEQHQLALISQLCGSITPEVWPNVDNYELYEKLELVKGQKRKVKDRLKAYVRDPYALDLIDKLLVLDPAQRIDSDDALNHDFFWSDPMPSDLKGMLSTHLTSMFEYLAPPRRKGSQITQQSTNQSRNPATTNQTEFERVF
Sequence of CDK9 (O60563 whole entry partner): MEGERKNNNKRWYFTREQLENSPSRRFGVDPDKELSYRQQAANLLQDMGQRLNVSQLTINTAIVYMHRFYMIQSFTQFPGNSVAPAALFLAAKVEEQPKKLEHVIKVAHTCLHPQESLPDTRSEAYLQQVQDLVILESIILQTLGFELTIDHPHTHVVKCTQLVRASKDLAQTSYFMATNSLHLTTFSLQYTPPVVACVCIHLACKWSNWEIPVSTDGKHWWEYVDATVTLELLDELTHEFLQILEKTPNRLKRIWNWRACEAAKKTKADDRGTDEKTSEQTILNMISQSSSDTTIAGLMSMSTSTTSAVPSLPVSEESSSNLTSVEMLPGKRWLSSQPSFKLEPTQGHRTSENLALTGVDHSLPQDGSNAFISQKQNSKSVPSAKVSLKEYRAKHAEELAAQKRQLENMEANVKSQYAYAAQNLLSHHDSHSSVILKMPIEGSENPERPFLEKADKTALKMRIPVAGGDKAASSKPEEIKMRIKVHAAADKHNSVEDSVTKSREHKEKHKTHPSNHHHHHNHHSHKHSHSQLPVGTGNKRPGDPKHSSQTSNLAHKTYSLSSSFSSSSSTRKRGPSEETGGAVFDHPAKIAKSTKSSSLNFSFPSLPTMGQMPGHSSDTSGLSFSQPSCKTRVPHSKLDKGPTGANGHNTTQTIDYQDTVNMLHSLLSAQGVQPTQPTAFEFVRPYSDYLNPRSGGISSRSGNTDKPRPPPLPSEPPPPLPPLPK
T1 sequence (P11802 whole entry): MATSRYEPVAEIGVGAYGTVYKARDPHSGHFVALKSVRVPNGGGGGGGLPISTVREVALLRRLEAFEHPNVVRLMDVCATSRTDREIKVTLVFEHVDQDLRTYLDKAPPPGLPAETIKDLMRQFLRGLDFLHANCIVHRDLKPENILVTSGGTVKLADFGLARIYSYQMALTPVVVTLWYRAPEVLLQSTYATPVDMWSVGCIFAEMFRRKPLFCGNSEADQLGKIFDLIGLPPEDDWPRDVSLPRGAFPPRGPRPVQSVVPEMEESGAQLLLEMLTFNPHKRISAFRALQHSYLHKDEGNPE
T1 sequence (P24385 whole entry partner): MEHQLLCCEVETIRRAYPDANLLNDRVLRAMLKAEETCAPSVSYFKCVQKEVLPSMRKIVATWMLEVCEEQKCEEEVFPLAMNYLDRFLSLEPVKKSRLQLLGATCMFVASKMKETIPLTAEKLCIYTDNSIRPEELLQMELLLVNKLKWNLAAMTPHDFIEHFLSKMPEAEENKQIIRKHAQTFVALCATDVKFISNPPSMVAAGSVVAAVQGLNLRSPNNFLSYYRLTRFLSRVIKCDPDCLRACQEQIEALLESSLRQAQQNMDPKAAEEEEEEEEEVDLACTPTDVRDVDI

SMILES	inhibition at 20 µM [3]	inhibition at 20 µM [4]	inhibition at 20 µM [5]	IC50 [1, 7]	IC50 [2, 8]	other results
O=C(N/N=C1\C(=O)N(Cc2ccc(F)cc2)c2ccccc21)c1cc2ccccc2[nH]1 [9e]	12%	5%	9%			IC50 ([1]; MCF7, 48 h): 3.7 ± 0.19 µM; IC50 [2, 6]: 1.03 ± 0.04 µM
O=C1Nc2ccc(Br)cc2/C1=N/NC(=O)c1cc2ccccc2[nH]1 [6d]	43%	85%	32%	3.31 ± 0.11 µM	18.3 ± 0.71 µM	
CN1C(=O)/C(=N\NC(=O)c2cc3ccccc3[nH]2)c2ccccc21 [9a]	20%	41%	13%	5.5 ± 0.28 µM	8.39 ± 0.27 µM	
CN[C@@H]1C[C@H]2O[C@@](C)([C@@H]1OC)n1c3ccccc3c3c4c(c5c6ccccc6n2c5c31)C(=O)NC4 [Staurosporine, reference compound]			98%			
O=C1Nc2ccccc2/C1=N/NC(=O)c1cc2ccccc2[nH]1 [6a]	92%	78%	20%	3.12 ± 0.14 µM	15.1 ± 0.73 µM	IC50 [3]: 1.82 µM
O=C(N/N=C1\CCCc2ccccc21)c1cc2ccccc2[nH]1 [11b]				> 100 µM	> 100 µM	IC50 MCF-7 [1, 9]: did not exert any significant anti-proliferative action; IC50 MDA-MB-231 ([2]; SRB assay, 48 h): no activity; also recorded: did not exert any significant anti-proliferative action
O=C(N/N=C1\C(=O)N(Cc2ccccc2)c2ccccc21)c1cc2ccccc2[nH]1 [9d]						IC50 ([1]; MCF7, 48 h): 9.56 ± 0.61 µM; IC50 [2, 6]: 6.5 ± 0.39 µM
CCOC(=O)CN1C(=O)/C(=N\NC(=O)c2cc3ccccc3[nH]2)c2ccccc21 [9c]				67.5 ± 3.02 µM	> 100 µM	IC50 MDA-MB-231 ([2]; SRB assay, 48 h): no anti-proliferative activity
O=C1Nc2ccc([N+](=O)[O-])cc2/C1=N/NC(=O)c1cc2ccccc2[nH]1 [6h]	46%	≥ 50%	10%	21.4 ± 1.58 µM	1.85 ± 0.07 µM	fold potency compared to staurosporine ([2]; MDA-MB-231, ratio of IC50 values): 5.56 fold
CCCN1C(=O)/C(=N\NC(=O)c2cc3ccccc3[nH]2)c2cc(Cl)ccc21 [9f]						IC50 ([1]; MCF7, 48 h): 19.3 ± 0.65 µM; IC50 [2, 6]: 9.44 ± 0.35 µM
O=C1Nc2ccc(Cl)cc2/C1=N/NC(=O)c1cc2ccccc2[nH]1 [6c]	28%	≥ 50%	11%	2.72 ± 0.17 µM	9.48 ± 0.44 µM	
O=C(NN=C1Cc2ccccc2C1)c1cc2ccccc2[nH]1 [11a]				84.7 ± 4.02 µM	> 100 µM	IC50 MCF-7 [1, 9]: did not exert any significant anti-proliferative action; IC50 MDA-MB-231 ([2]; SRB assay, 48 h): no activity; also recorded: did not exert any significant anti-proliferative action
O=C1Nc2ccc(OC(F)(F)F)cc2/C1=N/NC(=O)c1cc2ccccc2[nH]1 [6g]	19%	14%	4%	5.07 ± 0.21 µM	7.19 ± 0.38 µM	
CCCN1C(=O)/C(=N\NC(=O)c2cc3ccccc3[nH]2)c2ccccc21 [9b]						IC50 ([1]; MCF7, 48 h): 40.9 ± 3.17 µM; IC50 [2, 6]: 18.2 ± 0.85 µM; IC50 ([2]; read-out: IC50 MDA-MB-231, SRB assay, 48 h): 18.5 ± 0.85 µM
O=C1Nc2ccc(F)cc2/C1=N/NC(=O)c1cc2ccccc2[nH]1 [6b]	33%	48%	7%	6 ± 0.32 µM	6.36 ± 0.29 µM	
Cc1cc(C)c2c(c1)/C(=N/NC(=O)c1cc3ccccc3[nH]1)C(=O)N2 [6i]				47.2 ± 3.02 µM	> 100 µM	IC50 MDA-MB-231 ([2]; SRB assay, 48 h): no activity
